Experimental data from PubChem BioAssay AID1845200 (Molecular Pharmacology Branch, DTP, NCI, 2023).
pIC50: −log10 of the molar value.

System: ASPS-1 complex tumor spheroids, viability
Test: Anticancer human tumor ASPS-1 cell line growth inhibition;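 note: spheroids exposed to agents for 7 days after 3 days of growth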;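 for viability, T/C: 100% = DMSO vehicle treated spheroids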
Conditions: for pIC50: curve of first compound; for viability, T/C: stronger effect = lower value
Text: Multicellular complex tumor spheroid response to DNA repair inhibitors in combination with DNA-damaging drugs
This study explores the anticancer activities of DNA-damaging drugs and inhibitors of DNA damage repair, both as single agents and in combinations. Complex tumor spheroids comprised of malignant cells, endothelial cells and mesenchymal stem cells served as an in vitro model for human solid tumors. This model system incorporates physiologically relevant features and patient-derived or established malignant cell lines with clinically relevant genetic alterations from many tumor types. Twenty-six patient-derived or established malignant cell lines were evaluated representing sarcoma, melanoma, small cell lung cancer (SCLC), non-small cell lung cancer (NSCLC), as well as bladder, ovarian and pancreatic cancers. The concentration ranges selected for each drug and investigational agent were based upon clinically achievable concentrations if the clinical Cmax of the agent was known.
Compounds. The drugs and compounds olaparib (NSC753686), talazoparib (NSC767125), berzosertib (NSC777718), elimusertib (NSC800525), nedisertib (NSC802822), VX-984 (NSC792969), AZD-1390 (NSC803789), temozolomide (NSC362856), topotecan (NSC609699), trabectedin (NSC813783), staurosporine (NSC755774), and gemcitabine (NSC613327) were obtained from the National Cancer Institute (NCI) Developmental Therapeutics Program Chemical Repository. The FDA-approved anticancer drug set is available from the Developmental Therapeutics Program at https://dtp.cancer.gov/organization/dscb/obtaining/available_plates.htm. […] The stock solutions were prepared in dimethyl sulfoxide (DMSO, Sigma-Aldrich, St. Louis, MO, cat. D2650) at 400-fold the tested concentration and stored at -70 degrees C. Prior to their use, the stock solutions were diluted in fresh medium and the final DMSO concentration in the assay was 0.25% (v/v). All drugs and investigational agents were tested over a range starting from a high concentration at or near the clinical Cmax and decreasing in half-log increments. If the clinical Cmax for an agent had not been determined, the highest concentration tested was 10 microM.
Cell Lines. The patient-derived cancer cell (PDC) lines: 156681-154-R-J1-PDC, 283228-195-R-J1-PDC, 287954-098-R-J1-PDC, 292921-168-R-J2-PDC, 349418-098-R-PDC, 425362-245-T-J1-PDC, 556581-035-R-J1-PDC, and BL0293-F563-PDC were received from the NCI Patient-Derived Models Repository (PDMR, https://pdmr.cancer.gov). The established cell lines HS-SY-2 (RRID:CVCL_8719), MPNST, and SYO-1 (RRID:CVCL_7146) were obtained from the Sloan Kettering Institute. The alveolar soft parts sarcoma cell line ASPS-1 (RRID:CVCL_S738) was established at the NCI and grown from internal seed stocks. The following established cell lines were purchased from the American Type Culture Collection (ATCC, Manassas, VA): G-401 (ATCC, cat. CRL-1441, RRID:CVCL_0270), SW982 (ATCC, cat. HTB-93, RRID:CVCL_1734), VA-ES-BJ (ATCC, cat. CRL-2138, RRID:CVCL_1785), NCI-H719 (ATCC, cat. CRL-5837, RRID:CVCL_1582), NCI-H196 (ATCC, cat. CRL-5823, RRID:CVCL_1509), NCI-H841 (ATCC, cat. CRL-5845, RRID:CVCL_1595), NCI-H1618 (ATCC, cat. CRL-5879, RRID:CVCL_1480), NCI-H1876 (ATCC, cat. CRL-5902, RRID:CVCL_1503), DMS 114 (ATCC, cat. CRL-2066; RRID:CVCL_1174), NCI-H211 (ATCC, cat. CRL-5824; RRID:CVCL_1529), and SW 1271 (ATCC, cat. CRL-2177, RRID:CVCL_1716). The small cell lung cancer cell line COR-L88 was purchased from Sigma-Aldrich (cat. 92031917-1VL, RRID:CVCL_1141). The non-small cell lung cancer cell lines NCI-H226 (RRID:CVCL_1544) and NCI-H322M (RRID:CVCL_1557) were established at the NCI and grown from internal seed stocks. Pooled donor human umbilical vein endothelial cells (HUVEC, Lonza, cat. CC-2519) and human mesenchymal stem cells (hMSC, Lonza, cat. PT-2501) were purchased from Lonza (Walkersville, MD).
Cell Culture. All cells were maintained in an incubator at 37 degrees C and 5% CO2 with 95% humidity. […]

[1] = second compound 0.003 µM, first compound 0.0949 µM
[2] = second compound 0.003 µM, first compound 0.3 µM
[3] = second compound 0.003 µM, first compound 0.949 µM
[4] = second compound 0.003 µM, first compound 3 µM
[5] = second compound 0.00949 µM, first compound 0.0949 µM
[6] = second compound 0.00949 µM, first compound 0.3 µM
[7] = second compound 0.00949 µM, first compound 0.949 µM
[8] = second compound 0.00949 µM, first compound 3 µM
[9] = second compound 0.03 µM, first compound 0.0949 µM
[10] = second compound 0.03 µM, first compound 0.3 µM
[11] = second compound 0.03 µM, first compound 0.949 µM
[12] = second compound 0.03 µM, first compound 3 µM
[13] = second compound 0.0949 µM, first compound 0.0949 µM
[14] = second compound 0.0949 µM, first compound 0.3 µM
[15] = second compound 0.0949 µM, first compound 0.949 µM
[16] = second compound 0.0949 µM, first compound 3 µM
[17] = second compound 0.3 µM, first compound 0.0949 µM
[18] = second compound 0.3 µM, first compound 0.3 µM
[19] = second compound 0.3 µM, first compound 0.949 µM
[20] = second compound 0.3 µM, first compound 3 µM

Row | Compound | pIC50 (second compound 0.003 µM) | pIC50 (second compound 0.00949 µM) | pIC50 (second compound 0.03 µM) | pIC50 (second compound 0.0949 µM) | pIC50 (second compound 0.3 µM) | viability, T/C [1] [%] | viability, T/C [2] [%] | viability, T/C [3] [%] | viability, T/C [4] [%] | viability, T/C [5] [%] | viability, T/C [6] [%] | viability, T/C [7] [%] | viability, T/C [8] [%] | viability, T/C [9] [%] | viability, T/C [10] [%] | viability, T/C [11] [%] | viability, T/C [12] [%] | viability, T/C [13] [%] | viability, T/C [14] [%] | viability, T/C [15] [%] | other results
1 | Cn1ncnc1[C@H]1c2n[nH]c(=O)c3cc(F)cc(c23)N[C@@H]1c1ccc(F)cc1 + CC[C@@]1(O)C(=O)OCc2c1cc1n(c2=O)Cc2cc3c(CN(C)C)c(O)ccc3nc2-1 | < 5.52 | < 5.52 | 5.58 | > 8.02 | > 8.02 | 101 | 98.4 | 98.8 | 76.5 | 100 | 95.7 | 86.6 | 69.5 | 67.4 | 61.4 | 56.6 | 49 | 43.5 | 38.2 | 38 | viability, T/C (second compound 0.003 µM, first compound 0.00949 µM): 97.5%; viability, T/C (second compound 0.003 µM, first compound 0.03 µM): 98.3%; viability, T/C (second compound 0.00949 µM, first compound 0.00949 µM): 103%; viability, T/C (second compound 0.00949 µM, first compound 0.03 µM): 92%; viability, T/C (second compound 0.03 µM, first compound 0.00949 µM): 78.4%; viability, T/C (second compound 0.03 µM, first compound 0.03 µM): 75.9%; viability, T/C (second compound 0.0949 µM, first compound 0.00949 µM): 47%; viability, T/C (second compound 0.0949 µM, first compound 0.03 µM): 40.9%; viability, T/C [16]: 34.1%; viability, T/C (second compound 0.3 µM, first compound 0.00949 µM): 46.9%; viability, T/C (second compound 0.3 µM, first compound 0.03 µM): 41.9%; viability, T/C [17]: 40%; viability, T/C [18]: 41.3%; viability, T/C [19]: 40.1%; viability, T/C [20]: 39%
2 | O=C(c1cc(Cc2n[nH]c(=O)c3ccccc23)ccc1F)N1CCN(C(=O)C2CC2)CC1 + CC[C@@]1(O)C(=O)OCc2c1cc1n(c2=O)Cc2cc3c(CN(C)C)c(O)ccc3nc2-1 | < 4.52 | < 4.52 | < 4.52 | > 7.02 | > 7.02 | 114 | 107 | 101 | 105 | 102 | 106 | 103 | 105 | 84.9 | 88.8 | 90.3 | 77.4 | 45.8 | 50 | 49 | viability, T/C (second compound 0.003 µM, first compound 9.49 µM): 104%; viability, T/C (second compound 0.003 µM, first compound 30 µM): 97.3%; viability, T/C (second compound 0.00949 µM, first compound 9.49 µM): 101%; viability, T/C (second compound 0.00949 µM, first compound 30 µM): 93.5%; viability, T/C (second compound 0.03 µM, first compound 9.49 µM): 71.4%; viability, T/C (second compound 0.03 µM, first compound 30 µM): 66.1%; viability, T/C [16]: 48.6%; viability, T/C (second compound 0.0949 µM, first compound 9.49 µM): 40.1%; viability, T/C (second compound 0.0949 µM, first compound 30 µM): 49.7%; viability, T/C [17]: 49.1%; viability, T/C [18]: 45.4%; viability, T/C [19]: 43.1%; viability, T/C [20]: 44.2%; viability, T/C (second compound 0.3 µM, first compound 9.49 µM): 35.6%; viability, T/C (second compound 0.3 µM, first compound 30 µM): 42.2%
